The numbers were not newly measured in patent US20250000839A1, “PHARMACEUTICAL COMPOSITION COMPRISING ENAVOGLIFLOZIN” (DAEWOONG PHARMACEUTICAL CO., LTD., priority 2021, published 2025), which cites them from elsewhere.

For data set [1] the following is noted: at a very low dose of 1/100th of the dose compared to the same class of drugs.
Another data set deals with T1, human SGLT2 (Homo sapiens, UniProt P31639).
T1 sequence (P31639 1-672): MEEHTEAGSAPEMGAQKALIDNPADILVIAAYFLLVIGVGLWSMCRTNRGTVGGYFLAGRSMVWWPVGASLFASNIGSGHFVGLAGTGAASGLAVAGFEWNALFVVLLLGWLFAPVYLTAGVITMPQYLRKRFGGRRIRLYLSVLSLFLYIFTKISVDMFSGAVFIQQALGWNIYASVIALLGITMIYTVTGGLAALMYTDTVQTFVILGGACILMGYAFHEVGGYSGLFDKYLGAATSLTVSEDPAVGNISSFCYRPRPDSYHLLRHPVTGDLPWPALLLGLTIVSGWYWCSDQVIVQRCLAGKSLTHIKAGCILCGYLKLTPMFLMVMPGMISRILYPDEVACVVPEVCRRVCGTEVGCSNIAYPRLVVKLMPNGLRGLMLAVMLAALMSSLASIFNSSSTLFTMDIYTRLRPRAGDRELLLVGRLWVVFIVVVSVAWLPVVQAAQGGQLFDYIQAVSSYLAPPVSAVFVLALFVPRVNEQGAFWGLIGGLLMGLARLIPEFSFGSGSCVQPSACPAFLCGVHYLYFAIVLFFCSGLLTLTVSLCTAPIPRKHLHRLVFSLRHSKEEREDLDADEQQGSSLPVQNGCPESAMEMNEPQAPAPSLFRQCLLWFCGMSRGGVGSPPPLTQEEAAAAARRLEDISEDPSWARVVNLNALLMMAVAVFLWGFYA
The settings on record: disclosed in U.S. Patent Publication No. 2015/0152075.

For data set [2] the following is noted: phase 2 clinical trials; 0.1 mg, 0.3 mg and 0.5 mg groups.

As to `OC[C@H]1O[C@@H](c2cc(Cc3ccc(C4CC4)cc3)c(Cl)c3c2CCO3)[C@H](O)[C@@H](O)[C@@H]1O` [enavogliflozin, (2S,3R,4R,5S,6R)-2-(7-chloro-6-(4-cyclopropylbenzyl)-2,3-dihydrobenzofuran-4-yl)-6-(hydroxymethyl)tetrahydro-2H-pyran-3,4,5-triol], the “urinary sugar secretion (glucose excreted in urine) efficacy” value in data set [1] is “excellent”. The “inhibitory effect on human SGLT2 activity” value at human SGLT2 was “excellent inhibitory effect”. Also, the “blood sugar-lowering effect compared to the placebo” value in data set [2] is “statistically significant blood sugar-lowering effect”.
